Key:
[1] = test system: testosterone production in the CWR22R tumor; experiment: Testosterone production suppression in the tumor of a CWR22R tumor-bearing mouse; assay type: in vivo, nude mouse; details: 22Rv1, 10 mg/kg oral, androstenedione 1 ng/100 mm^3 into the tumor an hour later, dissection an hour after that, read-out: Inh (%) testosterone production suppression rate
From the text: Inhibition rate (%)=100×(average value of the hormone concentration in the solvent for administering test substance-administered group−average value of the hormone concentration in the test substance-administered group)/(average value of the hormone concentration in the solvent for administering test substance-administered group−average value of the background hormone concentration)
A CWR22R tumor was excised from a CWR22R subcutaneous tumor-bearing nude mouse. The excised tumor was segmented to become tumor specimens with size of about 5 mm per specimen. The tumor specimens were washed with a 20% serum-containing RPMI1640 culture medium twice and then stirred for about 20 minutes in a 0.1% protease and 20% serum-containing RPMI1640 culture medium. Supernatant was recovered to recover cells through centrifugation. These procedures were repeated as necessary, recovered cells were collected, and thereby the cell solution was prepared. After the cell number was counted, the cell solution was adjusted to 2×10^7 cells/mL. The same amount of the cell solution and Matrigel were mixed and adjusted to the final value of 1×10^7 cells/mL. 0.1 mL of the cell Matrigel mixture prepared in the above-described manner was subcutaneously injected to one site of the back of a male nude mouse with testectomy for the transplant. After the transplant, at a time point when the tumor volume reached 100 mm^3 or more, grouping was performed based on the tumor volume to conduct the following experiments.
Test substances were orally administered to the CWR22R subcutaneous tumor-bearing mouse. After an hour, that is, an hour before dissection, androstenedione was administered into the tumor to yield a level of 1 ng/100 mm^3 in the tumor. The composition of the liquid for administering androstenedione included 0.000075% DMF/0.00005% polysorbate 80/9.999875% saline/90% Matrigel. Tumor excision was performed through the dissection, and the tumor was weighed and then frozen for preservation. For the purpose of measuring the background value, the tumor of the mouse to which only the solvent for administering test substances had been orally administered was excised. Subsequently, under the ice cooling, the liquid for administering androstenedione was added thereto, and the resultant was subjected to quick-freezing for preservation.
To the tumor sample preserved through freezing was added a 0.2 M Na-K phosphate buffer (pH 7.4), and thereby a tumor homogenate was prepared under ice cooling by using a homogenizer (polytron). Tert-butyl methyl ether with a 6-fold capacity was added to the tumor homogenate, followed by centrifugation (3000 rpm, 5 min), and the supernatant was transferred to another test tube. While the test tube was maintained at 40° C. in a heat block, the solvent was evaporated by nitrogen gas. 2% BSA-containing 10 mM Tris-Cl buffer (pH 7.4) was added to the test tube and mixed to obtain an extract, and the testosterone concentration was measured by using DELFIA (trademark) Testosterone Reagents R050-201 (manufactured by PerkinElmer, Inc.).
The testosterone production suppression rates (%) of some Reference Example compounds in the tumor of CWR22R tumor-bearing mouse are shown in Table 25. Ex represents a Reference Example number, Inh represents the testosterone production suppression rates upon administration of 10 mg/kg of the Reference Example compounds.

human 17βHSD type 3 = biological target: T1, human 17βHSD type 3 (Homo sapiens, UniProt P37058); experiment: Measurement of enzyme activity of human 17βHSD type 3; assay type: biochemical; details: enzyme source: supernatant of transformed 293 cells; read-out: Type3 IC50
T1 construct: A full-length cDNA encoding human 17βHSD type 3 used in the pharmacological test; made in house; host or cells: human fetus kidney-derived 293 cells (transfected; supernatant of disrupted cells, not purified)
T1 sequence (P37058 1-310): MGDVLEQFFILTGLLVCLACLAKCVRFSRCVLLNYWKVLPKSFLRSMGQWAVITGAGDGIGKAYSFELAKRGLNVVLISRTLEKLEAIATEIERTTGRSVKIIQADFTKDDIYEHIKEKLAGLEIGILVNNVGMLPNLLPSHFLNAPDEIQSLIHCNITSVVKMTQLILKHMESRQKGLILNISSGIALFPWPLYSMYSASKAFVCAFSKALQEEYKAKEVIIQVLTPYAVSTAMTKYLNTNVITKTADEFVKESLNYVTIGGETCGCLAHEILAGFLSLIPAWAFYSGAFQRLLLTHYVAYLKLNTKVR
Experimental: A full-length cDNA encoding human 17βHSD type 3 used in the pharmacological test of this test example was obtained by the PCR method using a cDNA derived from human testis as a template. The nucleotide sequence of the obtained cDNA was analyzed by the dideoxyterminator method, and the clone matched with the known human 17βHSD type 3 sequence (GenBank accession No. BC034281) was selected. Subsequently, human fetus kidney-derived cell line, 293 cells, were transformed with a plasmid containing the cDNA, and the cells were collected 24 hours later. […]
Enzyme activity was measured referring to Trevor M. Penning, et al., Biochem. J., 351, 67-77, (2000). Specifically, using a 100 mM potassium phosphate buffer (pH 6.0), (1) the enzyme purified in Section 1 at a final concentration of 10 μg/mL, (2) androstenedione at a final concentration of 300 nM, (3) NADPH at a final concentration of 200 μM, and (4) a test substance, were mixed to react at room temperature for 2 hours, and then the amount of testosterone produced was measured using DELFIA (trademark) Testosterone Reagents R050-201 (manufactured by PerkinElmer). […] Then, IC50 values were calculated by the Logistic regression method.

SMILES: CCCc1nc2cc(C(F)(F)F)ccc2n1-c1cccc(C(=O)O)c1 [compound 23, 3-[2-propyl-5-(trifluoromethyl)-1H-benzimidazol-1-yl]benzoic acid]
- inhibition at 10 mg/kg [1]: 96%

SMILES: COCCc1cn(-c2cccc(C(=O)O)c2)c2ccc(C(F)(F)F)cc12 [Reference Example 47, 3-[3-(2-methoxyethyl)-5-(trifluoromethyl)-1H-indol-1-yl]benzoic acid]
- inhibition at 10 mg/kg [1]: 33%

SMILES: O=C(O)c1cccc(-n2c(Cc3ccc(F)cc3)nc3cc(C(F)(F)F)ccc32)c1 [compound 40, 3-[2-(4-fluorobenzyl)-5-(trifluoromethyl)-1H-benzimidazol-1-yl]benzoic acid]
- inhibition at 10 mg/kg [1]: 49%

SMILES: COc1nc2cc(C(F)(F)F)ccc2n1-c1cccc(C(=O)O)c1 [compound 32, 3-[2-methoxy-5-(trifluoromethyl)-1H-benzimidazol-1-yl]benzoic acid]
- IC50 (human 17βHSD type 3): > 10 µM

SMILES: O=C(O)c1cccc(-n2c(Cc3ccccc3)nc3cc(C(F)(F)F)ccc32)c1 [compound 38, 3-[2-benzyl-5-(trifluoromethyl)-1H-benzimidazol-1-yl]benzoic acid]
- inhibition at 10 mg/kg [1]: 66%

SMILES: Cc1nc2cc(C(F)(F)F)ccc2n1-c1cccc(C(=O)O)c1 [compound 21, 3-[2-methyl-5-(trifluoromethyl)-1H-benzimidazol-1-yl]benzoic acid]
- inhibition at 10 mg/kg [1]: 97%

SMILES: O=C(O)c1cccc(-n2c(COc3ccc(F)cc3)nc3cc(C(F)(F)F)ccc32)c1 [compound 45]
- inhibition at 10 mg/kg [1]: 94%

SMILES: Cc1cccc(-c2nc3cc(C(F)(F)F)ccc3n2-c2cccc(C(=O)O)c2)c1 [compound 36, 3-[2-(3-methylphenyl)-5-(trifluoromethyl)-1H-benzimidazol-1-yl]benzoic acid]
- inhibition at 10 mg/kg [1]: 45%

SMILES: O=C(O)c1cccc(-n2c(Cc3cccc(F)c3)nc3cc(C(F)(F)F)ccc32)c1 [compound 39, 3-[2-(3-fluorobenzyl)-5-(trifluoromethyl)-1H-benzimidazol-1-yl]benzoic acid]
- inhibition at 10 mg/kg [1]: 31%

SMILES: O=C(O)c1cccc(-n2c(COc3ccccc3)nc3cc(C(F)(F)F)ccc32)c1 [compound 44, 3-[2-phenoxymethyl-5-(trifluoromethyl)-1H-benzimidazol-1-yl]benzoic acid]
- IC50 (human 17βHSD type 3): > 10 µM

SMILES: O=C(O)c1cccc(-n2c(Cc3ccc(Cl)cc3)nc3cc(C(F)(F)F)ccc32)c1 [compound 41, 3-[2-(4-chlorobenzyl)-5-(trifluoromethyl)-1H-benzimidazol-1-yl]benzoic acid]
- inhibition at 10 mg/kg [1]: 45%

SMILES: O=C(O)c1cccc(-n2cnc3cc(C(F)(F)F)ccc32)c1 [compound 20, 3-[5-(trifluoromethyl)-1H-benzimidazol-1-yl]benzoic acid]
- inhibition at 10 mg/kg [1]: 89%

SMILES: O=C(O)c1cccc(-n2c(-c3ccccc3)nc3cc(C(F)(F)F)ccc32)c1 [compound 17, 3-[2-phenyl-5-(trifluoromethyl)-1H-benzimidazol-1-yl]benzoic acid]
- inhibition at 10 mg/kg [1]: 75%

SMILES: O=C(O)c1cccc(-n2c(C(F)(F)F)nc3cc(C(F)(F)F)ccc32)c1 [Reference Example 54, 3-[2,5-bis(trifluoromethyl)-1H-benzimidazol-1-yl]benzoic acid]
- inhibition at 10 mg/kg [1]: 99%
